According to US11272709B2, “Amidine substituted benzoyl derivatives useful as herbicides” (Syngenta Participations AG, priority 2018, dated 2022):

What was measured:
Type in all cases: in vivo
Settings in all cases: evaluated after 13 days
[1] = test system: Abutilon theophrasti (ABUTH); assay: Post-emergence herbicidal glasshouse test, Abutilon theophrasti (ABUTH)
Method: (§1) Seeds of a variety of test species are sown in standard soil in pots (Lolium perenne (LOLPE), Amaranthus retoflexus (AMARE), Abutilon theophrasti (ABUTH), Setaria faberi (SETFA), Echinochloa crus-galli (ECHCG), Ipomoea hederacea (IPOHE)). After cultivation for one day (pre-emergence) or after 8 days cultivation (post-emergence) under controlled conditions in a glasshouse (at 24/16° C., day/night; 14 hours light; 65% humidity), the plants are sprayed with an aqueous spray solution derived from the formulation of the technical active ingredient in acetone/water (50:50) solution containing 0.5% Tween 20 (polyoxyethelyene sorbitan monolaurate, CAS RN 9005-64-5). Compounds are applied at 500 g/h unless otherwise indicated. The test plants are then grown in a glasshouse under controlled conditions in a glasshouse (at 24/16° C., day/night; 14 hours light; 65% humidity) and watered twice daily. After 13 days for pre and post-emergence, the test is evaluated for the percentage damage caused to the plant. The biological activities are shown in the following table on a five point scale (5=80-100%; 4=60-79%; 3=40-59%; 2=20-39%; 1=0-19%).

Setaria faberi (SETFA) [2] = assay: Post-emergence herbicidal glasshouse test, Setaria faberi (SETFA)
Method: as §1

[3] = test system: Ipomoea hederacea (IPOHE); assay: Post-emergence herbicidal glasshouse test, Ipomoea hederacea (IPOHE)
Method: as §1

[4] = test system: Echinochloa crus-galli (ECHCG); assay: Post-emergence herbicidal glasshouse test, Echinochloa crus-galli (ECHCG)
Method: as §1

[5] = test system: Ipomoea hederacea (IPOHE); assay: Pre-emergence herbicidal glasshouse test, Ipomoea hederacea (IPOHE)
Method: as §1

Setaria faberi (SETFA) [6] = assay: Pre-emergence herbicidal glasshouse test, Setaria faberi (SETFA)
Method: as §1

[7] = test system: Amaranthus retoflexus (AMARE); assay: Post-emergence herbicidal glasshouse test, Amaranthus retoflexus (AMARE)
Method: as §1

[8] = test system: Echinochloa crus-galli (ECHCG); assay: Pre-emergence herbicidal glasshouse test, Echinochloa crus-galli (ECHCG)
Method: as §1

[9] = test system: Abutilon theophrasti (ABUTH); assay: Pre-emergence herbicidal glasshouse test, Abutilon theophrasti (ABUTH)
Method: as §1

[10] = test system: Amaranthus retoflexus (AMARE); assay: Pre-emergence herbicidal glasshouse test, Amaranthus retoflexus (AMARE)
Method: as §1

CC(=NOCc1c(S(C)(=O)=O)ccc(C(=O)Nc2nnc(C)o2)c1Cl)N(C)C [Compound 2.129]
POST Application ABUTH, percentage damage (five point scale) ([1]; 500 g/h): 5 (5=80-100%)
POST Application SETFA, percentage damage (five point scale) (Setaria faberi (SETFA) [2]; 500 g/h): 5 (5=80-100%)
POST Application IPOHE, percentage damage (five point scale) ([3]; 500 g/h): 5 (5=80-100%)
POST Application ECHCG, percentage damage (five point scale) ([4]; 500 g/h): 5 (5=80-100%)
PRE Application IPOHE, percentage damage (five point scale) ([5]; 500 g/h): 2 (2=20-39%)
PRE Application SETFA, percentage damage (five point scale) (Setaria faberi (SETFA) [6]; 500 g/h): 3 (3=40-59%)
POST Application AMARE, percentage damage (five point scale) ([7]; 500 g/h): 5 (5=80-100%)
PRE Application ECHCG, percentage damage (five point scale) ([8]; 500 g/h): 3 (3=40-59%)
PRE Application ABUTH, percentage damage (five point scale) ([9]; 500 g/h): 5 (5=80-100%)
PRE Application AMARE, percentage damage (five point scale) ([10]; 500 g/h): 5 (5=80-100%)

Cc1nnc(NC(=O)c2ccc(C(F)(F)F)c(N=CN(C)c3ccccc3)c2Cl)o1 [Compound 2.131]
POST Application ABUTH, percentage damage (five point scale) ([1]; 500 g/h): 4 (4=60-79%)
POST Application SETFA, percentage damage (five point scale) (Setaria faberi (SETFA) [2]; 500 g/h): 5 (5=80-100%)
POST Application IPOHE, percentage damage (five point scale) ([3]; 500 g/h): 3 (3=40-59%)
POST Application ECHCG, percentage damage (five point scale) ([4]; 500 g/h): 5 (5=80-100%)
PRE Application IPOHE, percentage damage (five point scale) ([5]; 500 g/h): 2 (2=20-39%)
PRE Application SETFA, percentage damage (five point scale) (Setaria faberi (SETFA) [6]; 500 g/h): 5 (5=80-100%)
POST Application AMARE, percentage damage (five point scale) ([7]; 500 g/h): 5 (5=80-100%)
PRE Application ECHCG, percentage damage (five point scale) ([8]; 500 g/h): 5 (5=80-100%)
PRE Application ABUTH, percentage damage (five point scale) ([9]; 500 g/h): 3 (3=40-59%)
PRE Application AMARE, percentage damage (five point scale) ([10]; 500 g/h): 5 (5=80-100%)

Cc1nnc(NC(=O)c2ccc(C(F)(F)F)c(N=CN3CCCC3)c2Cl)o1 [Compound 2.132]
POST Application ABUTH, percentage damage (five point scale) ([1]; 500 g/h): 5 (5=80-100%)
POST Application SETFA, percentage damage (five point scale) (Setaria faberi (SETFA) [2]; 500 g/h): 5 (5=80-100%)
POST Application IPOHE, percentage damage (five point scale) ([3]; 500 g/h): 5 (5=80-100%)
POST Application ECHCG, percentage damage (five point scale) ([4]; 500 g/h): 5 (5=80-100%)
PRE Application IPOHE, percentage damage (five point scale) ([5]; 500 g/h): 5 (5=80-100%)
PRE Application SETFA, percentage damage (five point scale) (Setaria faberi (SETFA) [6]; 500 g/h): 5 (5=80-100%)
POST Application AMARE, percentage damage (five point scale) ([7]; 500 g/h): 5 (5=80-100%)
PRE Application ECHCG, percentage damage (five point scale) ([8]; 500 g/h): 5 (5=80-100%)
PRE Application ABUTH, percentage damage (five point scale) ([9]; 500 g/h): 5 (5=80-100%)
PRE Application AMARE, percentage damage (five point scale) ([10]; 500 g/h): 5 (5=80-100%)

Cc1nnc(NC(=O)c2ccc(C(F)(F)F)c(N=CN(C)C(C)C)c2Cl)o1 [Compound 2.140]
POST Application ABUTH, percentage damage (five point scale) ([1]; 500 g/h): 5 (5=80-100%)
POST Application SETFA, percentage damage (five point scale) (Setaria faberi (SETFA) [2]; 500 g/h): 5 (5=80-100%)
POST Application IPOHE, percentage damage (five point scale) ([3]; 500 g/h): 4 (4=60-79%)
POST Application ECHCG, percentage damage (five point scale) ([4]; 500 g/h): 5 (5=80-100%)
PRE Application IPOHE, percentage damage (five point scale) ([5]; 500 g/h): 4 (4=60-79%)
PRE Application SETFA, percentage damage (five point scale) (Setaria faberi (SETFA) [6]; 500 g/h): 5 (5=80-100%)
POST Application AMARE, percentage damage (five point scale) ([7]; 500 g/h): 5 (5=80-100%)
PRE Application ECHCG, percentage damage (five point scale) ([8]; 500 g/h): 5 (5=80-100%)
PRE Application ABUTH, percentage damage (five point scale) ([9]; 500 g/h): 5 (5=80-100%)
PRE Application AMARE, percentage damage (five point scale) ([10]; 500 g/h): 5 (5=80-100%)

Cc1nnc(NC(=O)c2ccc(S(C)(=O)=O)c(N=CN(C)CC(F)(F)F)c2Cl)o1 [Compound 2.142]
POST Application ABUTH, percentage damage (five point scale) ([1]; applied at 250 g/ha): 5 (5=80-100%)
POST Application SETFA, percentage damage (five point scale) (Setaria faberi (SETFA) [2]; applied at 250 g/ha): 5 (5=80-100%)
POST Application IPOHE, percentage damage (five point scale) ([3]; applied at 250 g/ha): 5 (5=80-100%)
POST Application ECHCG, percentage damage (five point scale) ([4]; applied at 250 g/ha): 5 (5=80-100%)
PRE Application IPOHE, percentage damage (five point scale) ([5]; applied at 250 g/ha): 1 (1=0-19%)
PRE Application SETFA, percentage damage (five point scale) (Setaria faberi (SETFA) [6]; applied at 250 g/ha): 5 (5=80-100%)
POST Application AMARE, percentage damage (five point scale) ([7]; applied at 250 g/ha): 5 (5=80-100%)
PRE Application ECHCG, percentage damage (five point scale) ([8]; applied at 250 g/ha): 5 (5=80-100%)
PRE Application ABUTH, percentage damage (five point scale) ([9]; applied at 250 g/ha): 3 (3=40-59%)
PRE Application AMARE, percentage damage (five point scale) ([10]; applied at 250 g/ha): 5 (5=80-100%)

Cc1nnc(NC(=O)c2ccc(S(C)(=O)=O)c(N=CN(C)CC(F)(F)F)c2C)o1 [Compound 2.143]
POST Application ABUTH, percentage damage (five point scale) ([1]; 500 g/h): 5 (5=80-100%)
POST Application SETFA, percentage damage (five point scale) (Setaria faberi (SETFA) [2]; 500 g/h): 5 (5=80-100%)
POST Application IPOHE, percentage damage (five point scale) ([3]; 500 g/h): 5 (5=80-100%)
POST Application ECHCG, percentage damage (five point scale) ([4]; 500 g/h): 5 (5=80-100%)
PRE Application IPOHE, percentage damage (five point scale) ([5]; 500 g/h): 5 (5=80-100%)
PRE Application SETFA, percentage damage (five point scale) (Setaria faberi (SETFA) [6]; 500 g/h): 5 (5=80-100%)
POST Application AMARE, percentage damage (five point scale) ([7]; 500 g/h): 5 (5=80-100%)
PRE Application ECHCG, percentage damage (five point scale) ([8]; 500 g/h): 5 (5=80-100%)
PRE Application ABUTH, percentage damage (five point scale) ([9]; 500 g/h): 5 (5=80-100%)
PRE Application AMARE, percentage damage (five point scale) ([10]; 500 g/h): 5 (5=80-100%)
